Assay results: patent US20220267390A1, “MPS MODIFIED PEPTIDES AND USE THEREOF” (The Regents of the University of California, priority 2019, published 2022)
Where a SMILES comes first, the peptide text is derived from it. Where no end group is shown, it is not given here. [ ]: non-standard residue; d: D form.

Tested on: IPF fibroblast cells
Experiment: cells
Assay type: cell-based, human
Settings: Homo sapiens; IPF fibroblast cells, 72 hours; read-out: IC50 inhibiting IPF fibroblast proliferation
Protocol: FIG. 14: Comparison of MPS-12042 (SEQ ID NO: 45) versus know tyrosine kinase inhibitor (TKLs) on the treatment of IPF fibroblast cells. Both normal and IPF lung fibroblast cells were treated with various drugs. After 72 hours, cells were subjected to MTT assays and IC50 for each drug was determined.
Human primary fibroblast cells were obtained from airway tissues provided from the UC Davis Medical Hospital (Sacramento, Calif.) with consent. The protocol for human tissue procurement and usage were periodically reviewed and approved by the University Human Subject Research Review Committee. Primary fibroblast cell lines, IPF-1 and IPF-2 cells, were established from IPF patients. Cells were obtained from lung biopsies and the diagnosis of IPF was supported by patient history, physical examination, pulmonary function tests, and typical high-resolution chest computed tomography findings of IPF. […] All patients fulfilled the criteria for the diagnosis of IPF as established by the American Thoracic Society and European Respiratory Society. Non-fibrotic primary control adult human lung fibroblast lines, Normal-1 and Normal-2 cells were used. These lines were established from normal lung tissue or histologically normal lung tissue adjacent to carcinoid tumor. The IPF cell line, LL97A, was purchased from the American Type Culture Collection (ATCC) (Manassas, Va.). Lung fibroblast lines were cultured in high-glucose DMEM or RPMI-1640 medium with 10% fetal bovine serum and 1% penicillin-streptomycin at 37° C. in a humidified atmosphere of 5% CO2. Fibroblasts were used between passages 4 and 8. Cells were characterized as fibroblasts as described^26.
Cells were seeded onto 96-well plates at a density of 5-10×10^3 cells per well and cultured for the indicated treatment. Cell proliferation was evaluated using a MTS assay kit (Promega, Madison, Wis.). Twenty microliters of the combined MTS/PMS solution was added into each well, incubated for 3 hours at 37° C., and the absorbance was measured at 490 nm by using an ELISA reader. For Trypan blue test, cells were plated on 12-well plates and treated with the indicated chemotherapeutic agents. After 72 hours, both attached and detached cells were collected and then stained with 0.2% trypan blue (0.1% final concentration), and the number of trypan blue-positive and -negative cells was counted using a haemocytometer under low-power microscopy. For colony-forming assays, 200 cells were seeded in each well of six-well plates. IPF-1 or IPF-2 primary cells were treated with peptides at the indicated concentrations for 10 days. Colonies were stained using 0.001% crystal violet and the number of colonies with a diameter greater than 0.5 mm was counted under an inverted microscope.

`COC(=O)c1ccc2c(c1)NC(=O)/C2=C(\Nc1ccc(N(C)C(=O)CN2CCN(C)CC2)cc1)c1ccccc1` [nintedanib, reference compound] showed an IC50 of 13.8 to 15.9 µM.

Tested on: H1650 cells
Experiment: not given
Assay type: cell-based
Settings: not given
Protocol: IC50 (half maximal inhibitory concentration; μM) values in lung cancer cells. […] The residues marked in red/bold are D-isoforms of amino acids (SEQ ID NOS: 57, 48-54, 40-42 45 and 47 in order of appearance).
Molecular basis of MPS peptide and its potential for increasing nintedanib efficacy. […] A kinetic assay confirmed that this peptide binds PIP2 with a dissociation constant of 17.64 nM (FIG. 10B). As expected, a decrease of PIP3 pools in whole cell lysates of MPS-treated IPF fibroblasts was observed (FIG. 10C), supporting the notion that MPS peptide is able to inhibit AKT activation through trapping PIP2. In view of adverse effects of the current IPF therapeutic nintedanib^9, 10, there is an urgent clinical need to improve the efficacy of such treatment in IPF. Since the TGF-β receptor is not a direct target of nintedanib, targeting an element of TGF-β signaling in tandem with nintedanib administration circumvents the shortcomings of nintedanib monotherapy. […] Based on the above observations, it is assumed that TGF-β-directed phospho-MARCKS is a bypass mechanism of activating PI3K/AKT signaling (FIG. 11B); therefore, it seems reasonable that MARCKS inhibition by MPS treatment may improve nintedanib efficacy, permitting lower doses of nintedanib to be used. To this end, the possibility of a synergistic interaction between MPS and nintedanib in order to circumvent the shortcomings of nintedanib monotherapy was tested. […] Furthermore, the Chou and Talalay CI (combination index) method^25 was used to evaluate the therapeutic interactions between nintedanib and MPS peptide. […] Particularly, the values were lower than 1 at ED50, approximately 1 at ED75, and above 1 at ED90 (data not shown). Thus, the combination effect was dose-dependently correlated with the components, and therefore low dose nintedanib in combination with low dose of MPS presents a synergistic effect on cell proliferation. […] On the basis of the sequences of MPS peptide, the rearrangement of PIP2-binding sites in this peptide were designed and synthesized with the intention of enhancing the efficacy and stability of the MPS peptide. FIG. 13 lists the sequences of various MPS derivatives. In light of the cleavage sites of various proteases and PIP2 binding motifs, Applicant replaced some L-isoform amino acids with D-isoform and these peptides were named as MPS-12042 and MPS-22026. To further validate the efficacy of the above MPS derivatives, Applicant performed a dose-course analysis of H1650 cells undergoing each MPS derivative treatment.

KKKKKAFSFKKSFKLSGFSFKKNKK [MPS-11006] and KKKKFSFGSFSLKKFSFRKKKNKK [MPS-21020] are within 1.5-fold of each other in IC50: 79 µM for the first, 64 µM for the second.

Going from KKKKFAFGAFALKKFAFRKKKNKK [MPS-21026] to KKKKKRFSFKASFKLSGFSFKKNKK [MPS-11011], the IC50 falls from 49 µM to 29 µM (1.7-fold).

Compared with KKKKKRFSFAKSFKLSGFSFKKNKK [MPS-11010], `CC(C)C[C@@H](NC(=O)[C@@H](C)NC(=O)[C@@H](Cc1ccccc1)NC(=O)[C@@H](C)NC(=O)CNC(=O)[C@@H](Cc1ccccc1)NC(=O)[C@H](C)NC(=O)[C@@H](Cc1ccccc1)NC(=O)[C@H](CCCCN)NC(=O)[C@H](CCCCN)NC(=O)[C@H](CCCCN)NC(=O)[C@H](CCCCN)NC(=O)[C@@H](N)CCCCN)C(=O)N[C@@H](CCCCN)C(=O)N[C@H](CCCCN)C(=O)N[C@H](Cc1ccccc1)C(=O)N[C@@H](C)C(=O)N[C@H](Cc1ccccc1)C(=O)N[C@H](CCCNC(=N)N)C(=O)N[C@H](CCCCN)C(=O)N[C@@H](CCCCN)C(=O)N[C@@H](CCCCN)C(=O)N[C@@H](CC(N)=O)C(=O)N[C@H](CCCCN)C(=O)N[C@@H](CCCCN)C(=O)O` [MPS-22026] (H-KKKKK[dF]A[dF]G[dA][dF][dA][dL]K[dK][dF]A[dF][dR][dK]KKN[dK]K-OH; N-terminus and C-terminus assumed) is 6.6-fold lower in IC50: 73 µM for the first, 11 µM for the second.

“Ac-KKKKKRFSFKKSFKLSGFSFKKNKK-NH2 [MPS-11200]” and KKKKKRFSFKKSFKLSGFSFKANKK [MPS-11022] are within 1.5-fold of each other in IC50: 78 µM for the first, 83 µM for the second.

FSFGSFSLKKFSFRKKKNKK [MPS-21010] and KKAKKRFSFKKSFKLSGFSFKKNKK [MPS-11003] are within 1.5-fold of each other in IC50: 83 µM for the first, 85 µM for the second.

For AKKKKRFSFKKSFKLSGFSFKKNKK [MPS-11001], the IC50 was 85 µM.

Tested on: α-SMA and phospho-AKT
Experiment: Western blot of α-SMA and phospho-AKT in primary IPF fibroblasts
Assay type: cell-based, human
Settings: nintedanib 1000 nM, 48 hours
Protocol: FIGS. 11A-11B: (FIG. 11A) Western blot analysis of α-SMA and phospho-AKT in primary IPF fibroblasts with nintedanib (1000 nM) and/or MPS (100 μM) for 48 hours. (FIG. 11B) A proposed model of activating the PI3K/AKT pathway after nintedanib treatment. An arrow: a direct interaction. Western blot analyses and the preparations of whole-cell lysates have been previously described^14, 16, 27 For whole cell lysates, cells were lysed in a lysis buffer (50 mM Tris-HCl (pH 7.4), 1% Triton X-100, 10% glycerol, 150 mM NaCl, 1 mM EDTA, 20 μg/ml leupeptin, 1 mM PMSF and 20 μg/ml aprotinin) and separated by SDS-PAGE. Immunoblotting was conducted with appropriate antibodies followed by chemiluminescent detection. For immunofluorescent staining, after an antigen retrieval step, tissue slides were reacted with antibodies against FITC-labeled α-SMA and TRITC-conjugated phospho-MARCKS, and nuclei were demarcated with DAPI staining. The cells were mounted onto slides and visualized using fluorescence microscopy (model Axiovert 100; Carl Zeiss, Oberkochen, Germany) or a Zeiss LSM510 laser-scanning confocal microscope image system.

`COC(=O)c1ccc2c(c1)NC(=O)/C2=C(\Nc1ccc(N(C)C(=O)CN2CCN(C)CC2)cc1)c1ccccc1` [nintedanib, reference compound] was tested, and the phospho-AKT was “no change”.

For `COC(=O)c1ccc2c(c1)NC(=O)/C2=C(\Nc1ccc(N(C)C(=O)CN2CCN(C)CC2)cc1)c1ccccc1` [nintedanib, reference compound], the α-SMA expression was “increase”.

Tested on: primary IPF fibroblasts
Experiment: Combination of nintedanib and MPS peptide, cell viability by MTT, Chou and Talalay CI
Assay type: cell-based, human
Settings: nintedanib 62.5-2000 nM and/or MPS 6.25-200 μM, 72 hours
Protocol: FIGS. 12A-12E: (FIGS. 12A-12B) Combinatorial effect of MPS peptide with nintedanib on fibroblasts isolated from two IPF patients. Cells were treated with various closes of nintedanib (62.5-2000 nM) and/or MPS peptide (6.25-200 μM) for 72 hours, respectively. After single ([…]) or combined ([…]) treatment, cell viability was determined by MTT assays. (FIG. 12C) The Chou and Talalay CI (combination index) method was utilized to evaluate the therapeutic interactions between nintedanib and MPS peptide using the Calcusyn software. Gray line, additive effect of the combination of MPS peptide and the drug is represented at CI=1. (FIG. 12D) Cells were individually treated with 1 μM nintedanib, 100 μM MPS peptide or combinations of 1 μM nintedanib and 100 μM MPS peptide. After 48 hours, cell viability was determined by the trypan blue exclusion assay (n+3; *, p<0.05). […] Molecular basis of MPS peptide and its potential for increasing nintedanib efficacy. […] A kinetic assay confirmed that this peptide binds PIP2 with a dissociation constant of 17.64 nM (FIG. 10B). As expected, a decrease of PIP3 pools in whole cell lysates of MPS-treated IPF fibroblasts was observed (FIG. 10C), supporting the notion that MPS peptide is able to inhibit AKT activation through trapping PIP2. […]

`COC(=O)c1ccc2c(c1)NC(=O)/C2=C(\Nc1ccc(N(C)C(=O)CN2CCN(C)CC2)cc1)c1ccccc1` [nintedanib, reference compound] was tested, and the Cell viability was “decreased”.
